Laboratory results from patent US11110082B2, “Tyrosine kinase inhibitors” (Rigel Pharmaceuticals, Inc., priority 2016, dated 2021).

Target: T1, MerTK (Homo sapiens, UniProt Q12866)
T1 construct: Seed HUVECs (10K cells/well) in EBM-2 complete media; host or cells: HUVEC (primary human umbilical vein endothelial cells)
T1 sequence (Q12866 21-999): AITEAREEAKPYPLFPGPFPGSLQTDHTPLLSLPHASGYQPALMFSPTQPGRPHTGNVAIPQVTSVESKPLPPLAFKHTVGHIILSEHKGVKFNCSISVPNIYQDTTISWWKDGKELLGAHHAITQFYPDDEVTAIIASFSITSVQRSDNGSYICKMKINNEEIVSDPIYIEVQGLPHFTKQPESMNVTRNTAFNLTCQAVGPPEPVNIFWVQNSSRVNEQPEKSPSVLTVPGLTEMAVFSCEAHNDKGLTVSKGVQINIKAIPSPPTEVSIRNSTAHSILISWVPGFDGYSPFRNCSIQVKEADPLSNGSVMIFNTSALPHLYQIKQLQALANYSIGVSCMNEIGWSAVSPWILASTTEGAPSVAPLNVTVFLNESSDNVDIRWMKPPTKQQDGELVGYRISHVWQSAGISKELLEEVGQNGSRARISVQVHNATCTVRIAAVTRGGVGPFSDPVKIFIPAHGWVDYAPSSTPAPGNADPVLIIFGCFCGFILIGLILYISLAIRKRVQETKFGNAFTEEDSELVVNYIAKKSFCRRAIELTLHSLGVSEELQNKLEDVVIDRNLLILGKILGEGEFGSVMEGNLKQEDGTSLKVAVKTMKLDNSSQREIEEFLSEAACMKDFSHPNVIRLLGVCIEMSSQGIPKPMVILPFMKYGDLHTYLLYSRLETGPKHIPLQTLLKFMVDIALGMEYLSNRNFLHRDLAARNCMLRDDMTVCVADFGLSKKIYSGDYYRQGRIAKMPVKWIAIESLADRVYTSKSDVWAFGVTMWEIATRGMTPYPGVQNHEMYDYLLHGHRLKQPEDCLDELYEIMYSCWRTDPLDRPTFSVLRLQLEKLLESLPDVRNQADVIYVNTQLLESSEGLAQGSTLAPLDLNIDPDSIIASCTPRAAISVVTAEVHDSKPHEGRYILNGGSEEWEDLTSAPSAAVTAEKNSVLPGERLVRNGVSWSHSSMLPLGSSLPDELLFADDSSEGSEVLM
Test: PAKT HTRF-HUVEC assay (pAkt Ser473 HTRF after anti-human MerTK-XL stimulation)
Type: cell-based
Details: HUVEC cells, 1 hour compound, stimulated with anti-human MerTK-XL 1 ug/mL for 10 minutes, read-out: inhibition of MerTK
How it was run: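 HUVECs starved 3-4 h in basal medium, preincubated with compound 1 h at 37° C, then stimulated 10 min with cross-linked anti-human MerTK antibody (final 1 ug/mL). Lysates read for pAkt (Ser473) by HTRF; EC50 from curve fitting.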

Row | Structure (SMILES) | EC50 [nM]
1 | CC(C)(C)N1CCN(Cc2ccc3c(c2)c(=O)n([C@H]2CC[C@H](O)CC2)c2nc(NCC4CC4)ncc32)CC1 [Compound 182] | 7.6
2 | CN1CC2(C1)CN(c1ccc3c(c1)c(=O)n([C@H]1CC[C@H](O)CC1)c1nc(NC4CC(F)C4)ncc31)C2 (stereo partly drawn) [Compound 74, trans-3-((3-Fluorocyclobutyl)amino)-5-(4-hydroxycyclohexyl)-8-(6-methyl-2,6-diazaspiro[3.3]heptan-2-yl)pyrimido[4,5-c]isoquinolin-6(5H)-one] | 218
3 | O=c1c2cc(CN3CCN(c4ccncc4)CC3)ccc2c2cnc(NCCC3CC3)nc2n1[C@H]1CC[C@H](O)CC1 [Compound 222, trans-3-((2-Cyclopropylethyl)amino)-5-(4-hydroxycyclohexyl)-8-((4-(pyridin-4-yl)piperazin-1-yl)methyl)pyrimido[4,5-c]isoquinolin-6(5H)-one] | 14.5
4 | CN1CCN(Cc2ccc3c(c2)c(=O)n([C@H]2CC[C@H](NC(=O)CC#N)CC2)c2nc(NCC4CC4)ncc32)CC1 [Compound 190, trans-2-Cyano-N-(4-(3-((cyclopropylmethyl)amino)-8-((4-methylpiperazin-1-yl)methyl)-6-oxopyrimido[4,5-c]isoquinolin-5(6H)-yl)cyclohexyl)acetamide] | 73
5 | CC(C)(C)N1CCN(Cc2ccc3c(c2)c(=O)n([C@H]2CC[C@H](O)CC2)c2nc(NC4CC(F)(F)C4)ncc32)CC1 [Compound 199, trans-8-((4-(tert-Butyl)piperazin-1-yl)methyl)-3-((3,3-difluorocyclobutyl)amino)-5-(4-hydroxycyclohexyl)pyrimido[4,5-c]isoquinolin-6(5H)-one] | 10.8
6 | CCCCNc1ncc2c3ccc(N4CCNCC4)cc3c(=O)n(C3CCC(=O)CC3)c2n1 [Compound 84, 3-(Butylamino)-5-(4-oxocyclohexyl)-8-(piperazin-1-yl)pyrimido[4,5-c]isoquinolin-6(5H)-one] | 288
7 | O=c1c2cc(CN3CCN(c4ccncc4)CC3)ccc2c2cnc(NCC3CC3)nc2n1[C@H]1CC[C@H](O)CC1 [Compound 124, trans-3-((Cyclopropylmethyl)amino)-5-(4-hydroxycyclohexyl)-8-((4-(pyridin-4-yl)piperazin-1-yl)methyl)pyrimido[4,5-c]isoquinolin-6(5H)-one] | 36.2
8 | O=c1c2cc(N3CCN(CC(F)(F)F)CC3)ccc2c2cnc(NCC3CC3)nc2n1[C@H]1CC[C@H](O)CC1 [Compound 104, trans-3-((Cyclopropylmethyl)amino)-5-(4-hydroxycyclohexyl)-8-(4-(2,2,2-trifluoroethyl)piperazin-1-yl)pyrimido[4,5-c]isoquinolin-6(5H)-one] | 289
9 | CCCCNc1ncc2c3ccc(N4C[C@@H](C)N(C)C[C@@H]4C)cc3c(=O)n(C3CCC(=O)CC3)c2n1 [Compound 79, 3-(Butylamino)-5-(4-oxocyclohexyl)-8-((2S,5R)-2,4,5-trimethylpiperazin-1-yl)pyrimido[4,5-c]isoquinolin-6(5H)-one] | 156
10 | CCCCNc1ncc2c3ccc(CN4CCN(C)CC4)cc3c(=O)n([C@H]3CC[C@@H](O)CC3)c2n1 [Compound 5, cis-3-(Butylamino)-5-(4-hydroxycyclohexyl)-8-((4-methylpiperazin-1-yl)methyl)pyrimido[4,5-c]isoquinolin-6(5H)-one] | 98
11 | CCCCNc1ncc2c3ccc(N4CCN(C)CC4)cc3c(=O)n(C3CC4(CC(O)C4)C3)c2n1 (stereo not drawn) [Compound 88, 3-(Butylamino)-5-(6-hydroxyspiro[3.3]heptan-2-yl)-8-(4-methylpiperazin-1-yl)pyrimido[4,5-c]isoquinolin-6(5H)-one] | 51
12 | CC(C)CNc1ncc2c3ccc(CN4CCN(C)CC4)cc3c(=O)n([C@H]3CC[C@H](O)CC3)c2n1 [Compound 130, trans-5-(4-hydroxycyclohexyl)-3-(isobutylamino)-8-((4-methylpiperazin-1-yl)methyl)pyrimido[4,5-c]isoquinolin-6(5H)-one] | 51.2
13 | CN1CCN(Cc2ccc3c(c2)c(=O)n([C@H]2CC[C@H](N)CC2)c2nc(NCC4CC4)ncc32)CC1 [Compound 185, trans-5-(4-aminocyclohexyl)-3-((cyclopropylmethyl)amino)-8-((4-methylpiperazin-1-yl)methyl)pyrimido[4,5-c]isoquinolin-6(5H)-one] | 28.7
14 | CN1CCN(Cc2ccc3c(c2)c(=O)n(C2CCNCC2)c2nc(NCC4CC4)ncc32)CC1 [Compound 191] | 875
15 | CCCCNc1ncc2c3ccc(CN4CCNCC4)cc3c(=O)n([C@H]3CC[C@H](O)CC3)c2n1 [Compound 44, trans-3-(Butylamino)-5-(4-hydroxycyclohexyl)-8-(piperazin-1-ylmethyl)pyrimido[4,5-c]isoquinolin-6(5H)-one] | 66

The remaining molecules from weak to strong by EC50, led by results:

Row | EC50 [nM] | Structure (SMILES)
16 | 13800 | CN1CCN(Cc2ccc3c(c2)c(=O)n([C@H]2CC[C@H](OC(N)=O)CC2)c2nc(N(CC4CC4)C(N)=O)ncc32)CC1 [Compound 183]
17 | 4040 | CN1CCN(Cc2ccc3c(c2)c(=O)n([C@H]2CC[C@H](C(=O)O)CC2)c2nc(NCC4CC4)ncc32)CC1 [Compound 135, trans-4-(3-((Cyclopropylmethyl)amino)-8-((4-methylpiperazin-1-yl)methyl)-6-oxopyrimido[4,5-c]isoquinolin-5(6H)-yl)cyclohexane-1-carboxylic Acid]
18 | 1080 | O=c1c2cc(N3CC4(COC4)C3)ccc2c2cnc(NC3CC(F)C3)nc2n1[C@H]1CC[C@H](O)CC1 (stereo partly drawn) [Compound 75, trans-3-((3-Fluorocyclobutyl)amino)-5-(4-hydroxycyclohexyl)-8-(2-oxa-6-azaspiro[3.3]heptan-6-yl)pyrimido[4,5-c]isoquinolin-6(5H)-one]
19 | 401 | O=c1c2cc(CN3CC[S+]([O-])CC3)ccc2c2cnc(NCC3CC3)nc2n1[C@H]1CC[C@H](O)CC1 [Compound 165]
20 | 380 | O=c1c2cc(N3CCN(C4COC4)CC3)ccc2c2cnc(NCC3CC3)nc2n1[C@H]1CC[C@H](O)CC1 [Compound 111, trans-3-((Cyclopropylmethyl)amino)-5-(4-hydroxycyclohexyl)-8-(4-(oxetan-3-yl)piperazin-1-yl)pyrimido[4,5-c]isoquinolin-6(5H)-one]
21 | 326 | O=c1c2ccccc2c2cnc(NCC3CCC3)nc2n1[C@H]1CC[C@H](O)CC1 [Compound 117, trans-3-((Cyclobutylmethyl)amino)-5-(4-hydroxycyclohexyl)pyrimido [4,5-c]isoquinolin-6(5H)-one]
22 | 115 | CN1CCN(c2ccc3c(c2)c(=O)n([C@H]2CC[C@H](O)CC2)c2nc(NCC4CC4)ncc32)CC1 [Compound 87, trans-3-((Cyclopropylmethyl)amino)-5-(4-hydroxycyclohexyl)-8-(4-methylpiperazin-1-yl)pyrimido[4,5-c]isoquinolin-6(5H)-one]
23 | 43 | CCCCNc1ncc2c3ccc(CN4CCN(C)CC4)cc3c(=O)n([C@H]3CC[C@H](N)C3)c2n1 [Compound 232, 5-((1S,3S)-3-aminocyclopentyl)-3-(butylamino)-8-((4-methylpiperazin-1-yl)methyl)pyrimido[4,5-c]isoquinolin-6(5H)-one]
24 | 36.3 | O=c1c2cc(CN3CCSCC3)ccc2c2cnc(NCC3CC3)nc2n1[C@H]1CC[C@H](O)CC1 [Compound 53, trans-3-((Cyclopropylmethyl)amino)-5-(4-hydroxycyclohexyl)-8-(thiomorpholinomethyl)pyrimido [4,5-c]isoquinolin-6(5H)-one]
25 | 11.2 | O=c1c2cc(CN3CCN(c4ccncc4)CC3)ccc2c2cnc(NCC3CCC3)nc2n1[C@H]1CC[C@H](O)CC1 [Compound 220, trans-3-((Cyclobutylmethyl)amino)-5-(4-hydroxycyclohexyl)-8-((4-(pyridin-4-yl)piperazin-1-yl)methyl)pyrimido[4,5-c]isoquinolin-6(5H)-one]
26 | 7.4 | CN1CCN(Cc2ccc3c(c2)c(=O)n(C2CCC(C)(C)CC2)c2nc(NCC4CCC4)ncc32)CC1 [Compound 146]
27 | 4.1 | O=c1c2cc(CN3CCC(c4ccncc4)CC3)ccc2c2cnc(NCC3CC3)nc2n1[C@H]1CC[C@H](O)CC1 [Compound 217, trans-3-((Cyclopropylmethyl)amino)-5-(4-hydroxycyclohexyl)-8-((4-(pyridin-4-yl)piperidin-1-yl)methyl)pyrimido[4,5-c]isoquinolin-6(5H)-one]
